In ChEMBL document CHEMBL1201862, “PubChem BioAssay data set” (2004):
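Briefly, cells in 96-well plates were exposed to five compound concentrations for 48 h, and endpoints were estimated by linear interpolation. Here, GI50 denotes the concentration required for 50% inhibition of growth.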 Calls of active or inactive are those of the source. No stated cut-off is given here; in the data, active = GI50 up to about 1.1 µM and inactive = higher.

Tests used:
Test in all cases: DTP human tumour cell line panel, 48 h
[1] = tested on: A498
[2] = tested on: ACHN
[3] = tested on: CAKI-1
[4] = tested on: HT-29
[5] = tested on: IGROV-1
[6] = tested on: MCF7
[7] = tested on: MDA-MB-231
[8] = tested on: MOLT-4
[9] = tested on: Malme-3M
[10] = tested on: NCI-H460
[11] = tested on: RPMI-8226
[12] = tested on: SK-MEL-28
[13] = tested on: SK-OV-3
[14] = tested on: TK-10

Row | Compound | GI50 [1] | GI50 [2] | GI50 [3] | GI50 [4] | GI50 [5] | GI50 [6] | GI50 [7] | GI50 [8] | GI50 [9] | GI50 [10] | GI50 [11] | GI50 [12] | GI50 [13] | GI50 [14]
1 | N#Cc1c2c(c(Nc3ccc(F)cc3)n3c1nc1ccccc13)CCC2 | 12.9 µM (inactive) | 2.29 µM (inactive) | 1.68 µM (inactive) | 1.87 µM (inactive) | 3.52 µM (inactive) | 3.32 µM (inactive) | 3.61 µM (inactive) | 7.73 µM (inactive) | 7.41 µM (inactive) | 7.21 µM (inactive) | 2.28 µM (inactive) | 9.27 µM (inactive) | 9.93 µM (inactive) | 3.7 µM (inactive)
2 | CCc1nc(N)nc(N)c1-c1ccc([N+](=O)[O-])c(Cl)c1 | 27 µM (inactive) | 2.73 µM (inactive) | 4.55 µM (inactive) | 1.78 µM (inactive) | 3.31 µM (inactive) | 4.55 µM (inactive) | 37.3 µM (inactive) | 4.27 µM (inactive) | > 100 µM (inactive) | 0.42 µM (active) | 8.36 µM (inactive) | 36.5 µM (inactive) | 27.5 µM (inactive) | 24.9 µM (inactive)
3 | S=C(NN=C1NCCCCN1)Nc1ccc(Cl)cc1 | 33 µM (inactive) | 7.29 µM (inactive) | < 0.01 µM (active) | 16.2 µM (inactive) | 16 µM (inactive) | 34 µM (inactive) | 21 µM (inactive) | 6.67 µM (inactive) | 17.1 µM (inactive) | 3.78 µM (inactive) | 7.83 µM (inactive) | 31 µM (inactive) | 15.1 µM (inactive) | 27.3 µM (inactive)
4 | CCC(=O)C(CCN1CCC(N2C(=O)C(CCC#N)c3ccccc32)CC1)(c1ccccc1)c1ccccc1 (stereo not given) | 23.2 µM (inactive) | 15.9 µM (inactive) | 21.9 µM (inactive) | 3.4 µM (inactive) | 14.6 µM (inactive) | 11.5 µM (inactive) | 7.36 µM (inactive) | 4.56 µM (inactive) | 12.1 µM (inactive) | 11.3 µM (inactive) | 4.17 µM (inactive) | 18.7 µM (inactive) | 15.5 µM (inactive) | 12.5 µM (inactive)
5 | Nc1nc(-c2cccs2)cs1 | > 100 µM (inactive) | 98.6 µM (inactive) | > 100 µM (inactive) | > 100 µM (inactive) | 47.3 µM (inactive) | 91.8 µM (inactive) | 60.4 µM (inactive) |  | > 100 µM (inactive) | 47.9 µM (inactive) | 90.8 µM (inactive) | > 100 µM (inactive) | > 100 µM (inactive) | 87.9 µM (inactive)
6 | Cc1cn2c(C)csc2c1P(=O)(OC(C)C)OC(C)C | > 100 µM (inactive) | > 100 µM (inactive) | > 100 µM (inactive) | > 100 µM (inactive) | > 100 µM (inactive) | > 100 µM (inactive) | 31.3 µM (inactive) | > 100 µM (inactive) | > 100 µM (inactive) | > 100 µM (inactive) | > 100 µM (inactive) | > 100 µM (inactive) | > 100 µM (inactive) | > 100 µM (inactive)
7 | CC(=O)OC1CC[C@@]2(C)C(=CC[C@@H]3[C@@H]2CC[C@]2(C)Nc4c(cnn4-c4ccc(F)cc4)C[C@@H]32)C1 (stereo not given in full) | 19.8 µM (inactive) | 35.3 µM (inactive) | 6.1 µM (inactive) | 13.2 µM (inactive) | 42.2 µM (inactive) | > 34.8 µM (inactive) | 33 µM (inactive) | 2.02 µM (inactive) | 9.35 µM (inactive) | 12.9 µM (inactive) | 3.24 µM (inactive) | 15.1 µM (inactive) | 32.1 µM (inactive) | 49 µM (inactive)
8 | CNCCCNC(=S)Cn1cc(C)c(=O)[nH]c1=O | > 55.6 µM (inactive) | > 49.2 µM (inactive) | 24.9 µM (inactive) | > 35.9 µM (inactive) | > 39.5 µM (inactive) | > 31.8 µM (inactive) | > 60.4 µM (inactive) | > 35.2 µM (inactive) | > 100 µM (inactive) | > 43 µM (inactive) | > 100 µM (inactive) | > 56.9 µM (inactive) | > 54.8 µM (inactive) | > 64.7 µM (inactive)
9 | Nc1c(-c2ccccc2)c2ccc([N+](=O)[O-])cc2c(=O)n1-c1cccc(C(=O)O)c1 | > 100 µM (inactive) | > 100 µM (inactive) | > 100 µM (inactive) | > 100 µM (inactive) | > 100 µM (inactive) | > 100 µM (inactive) | > 100 µM (inactive) | > 100 µM (inactive) |  | > 100 µM (inactive) | > 100 µM (inactive) | > 100 µM (inactive) | > 100 µM (inactive) | > 100 µM (inactive)
10 | CO[C@@]12C[C@@H](CNC(=O)c3cc(Br)c[nH]3)O[C@@H]1NC(=O)N2 | > 100 µM (inactive) | > 100 µM (inactive) | > 100 µM (inactive) | > 100 µM (inactive) | > 100 µM (inactive) | > 100 µM (inactive) | > 100 µM (inactive) |  | > 100 µM (inactive) | > 100 µM (inactive) | > 100 µM (inactive) | > 100 µM (inactive) | > 100 µM (inactive) | > 100 µM (inactive)
11 | COC(=O)/C=C(C)/C=C\COC1CCCCO1 (stereo not given) | > 100 µM (inactive) | > 100 µM (inactive) | > 100 µM (inactive) |  | > 100 µM (inactive) | > 100 µM (inactive) | > 100 µM (inactive) | > 100 µM (inactive) | > 100 µM (inactive) | > 100 µM (inactive) | > 100 µM (inactive) | > 100 µM (inactive) | > 100 µM (inactive) | > 100 µM (inactive)
12 | O=C1/C(=C/c2ccc(O)c(O)c2)CC/C1=C\c1ccc(O)c(O)c1 | 17 µM (inactive) | 4.98 µM (inactive) | 8.17 µM (inactive) | 18.5 µM (inactive) | 3.74 µM (inactive) | 6.15 µM (inactive) | 28.7 µM (inactive) | 3.23 µM (inactive) | > 29.8 µM (inactive) | 9.66 µM (inactive) | 2.23 µM (inactive) | 14.2 µM (inactive) | 12.1 µM (inactive) | > 25.9 µM (inactive)
13 | COc1cc2c(cc1O)C(=O)O[C@@H]1CC=C3CCN(C)[C@H]3[C@H]21 | > 25 µM (inactive) | > 25 µM (inactive) | > 25 µM (inactive) | > 25 µM (inactive) | > 25 µM (inactive) | > 25 µM (inactive) | > 25 µM (inactive) | > 25 µM (inactive) | > 25 µM (inactive) |  | > 25 µM (inactive) | > 25 µM (inactive) | > 25 µM (inactive) | > 25 µM (inactive)
14 | CCCC(=O)NC1CCc2cc(OC)c(OC)c(OC)c2-c2ccc(OC)c(=O)cc21 (stereo not given) | 0.00807 µM (active) | 0.019 µM (active) |  | 0.00036 µM (active) | 0.000828 µM (active) | 0.000257 µM (active) | 0.0004 µM (active) | 0.000493 µM (active) | 0.000764 µM (active) | 0.000644 µM (active) | 0.01 µM (active) | 0.01 µM (active) | 0.00454 µM (active) | 78.5 µM (inactive)
